Experimental data from PubChem BioAssay AID330 (DTP/NCI, 2004).
Several values for one entry are separate records, joined by “and”; a condition that tells them apart may be missing. Identical values can stand only once. Toxic doses and inconclusive results are not listed. The calls were made as follows: active = survival T/C of 150% or more; inactive = T/C below 125% in these data.

Test system: P388 leukemia ip, CD2F1 mice, survival T/C
Assay: NCI In Vivo Anticancer Drug Screen. Data for tumor model P388 Leukemia (intraperitoneal) in CD2F1 (CDF1) mice
Conditions: endpoint: median survival time, higher = longer survival
Outline: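 Mice carrying the transplanted tumor received test compound or vehicle. Survival was recorded in each group, and the value is the treated-group measurement divided by that of the vehicle-treated control group.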

[1] = dose: 12.5 mg/kg/injection, schedule: Q01DX009 (ip), vehicle: Klucel (hydroxypropylcellulose) (HPC)
[2] = dose: 100.0 mg/kg/injection, schedule: Q04DX003 (ip), vehicle: saline with Tween-80
[3] = dose: 200.0 mg/kg/injection, schedule: Q04DX003 (ip), vehicle: saline with Tween-80

Measured: T/C

COc1cc2c(c(OC)c1OC)-c1ccc(NCc3ccccc3)c(=O)cc1[C@@H](NC(C)=O)CC2
inactive: dose: 0.78 mg/kg/injection, schedule: Q01DX009 (ip), vehicle: Klucel (hydroxypropylcellulose) (HPC) 103 % of control and 104 % of control and 105 % of control | dose: 1.56 mg/kg/injection, schedule: Q01DX009 (ip), vehicle: Klucel (hydroxypropylcellulose) (HPC) 98 % of control and 101 % of control and 104 % of control | dose: 3.12 mg/kg/injection, schedule: Q01DX009 (ip), vehicle: Klucel (hydroxypropylcellulose) (HPC) 105 % of control and 106 % of control and 117 % of control | dose: 6.25 mg/kg/injection, schedule: Q01DX009 (ip), vehicle: Klucel (hydroxypropylcellulose) (HPC) 117 % of control | [1] 98 % of control and 117 % of control

O=c1cc(CBr)c2ccccc2[nH]1
inactive: dose: 6.25 mg/kg/injection, schedule: Q01DX009 (ip), vehicle: saline with Tween-80 95 % of control | dose: 12.5 mg/kg/injection, schedule: Q01DX009 (ip), vehicle: saline with Tween-80 95 % of control | dose: 25.0 mg/kg/injection, schedule: Q01DX009 (ip), vehicle: saline with Tween-80 86 % of control

COC(=O)CCC(=O)Nc1cc(Cl)c(Cl)cc1Cl
inactive: dose: 60.0 mg/kg/injection, schedule: Q01DX005 (ip), vehicle: saline with Tween-80 100 % of control | dose: 120.0 mg/kg/injection, schedule: Q01DX005 (ip), vehicle: saline with Tween-80 93 % of control | dose: 240.0 mg/kg/injection, schedule: Q01DX005 (ip), vehicle: saline with Tween-80 91 % of control

C=C(C)C(=O)OC1C2C(=C)C(=O)OC2CC(C)C2OC2C(=O)C(C)(O)C1OC(=O)C(=C)C (centres undefined)
inactive: dose: 12.5 mg/kg/injection, schedule: Q04DX002 (ip), vehicle: Klucel (hydroxypropylcellulose) (HPC) 110 % of control | dose: 25.0 mg/kg/injection, schedule: Q04DX002 (ip), vehicle: Klucel (hydroxypropylcellulose) (HPC) 110 % of control | dose: 50.0 mg/kg/injection, schedule: Q04DX002 (ip), vehicle: Klucel (hydroxypropylcellulose) (HPC) 107 % of control

Nc1nc(CCl)nc(Nc2ccccc2)n1
inactive: [1] 101 % of control | dose: 25.0 mg/kg/injection, schedule: Q01DX009 (ip), vehicle: Klucel (hydroxypropylcellulose) (HPC) 101 % of control | dose: 50.0 mg/kg/injection, schedule: Q01DX009 (ip), vehicle: Klucel (hydroxypropylcellulose) (HPC) 101 % of control | dose: 100.0 mg/kg/injection, schedule: Q01DX009 (ip), vehicle: Klucel (hydroxypropylcellulose) (HPC) 99 % of control

Cn1nc(N)c2ncc(-c3ccc(Cl)cc3)nc21
inactive: [2] 90 % of control | [3] 95 % of control

CC[C@]1(O)CC(OC2CC(N(C)C)C(O)C(C)O2)c2c(cc3c(c2O)C(=O)c2c(O)cccc2C3=O)[C@@H]1C(=O)OC (some centres undefined)
inactive: dose: 50.0 mg/kg/injection, schedule: Q01DX005 (ip), vehicle: Klucel (hydroxypropylcellulose) (HPC) 95 % of control | dose: 100.0 mg/kg/injection, schedule: Q01DX005 (ip), vehicle: Klucel (hydroxypropylcellulose) (HPC) 96 % of control | dose: 200.0 mg/kg/injection, schedule: Q01DX005 (ip), vehicle: Klucel (hydroxypropylcellulose) (HPC) 97 % of control

CC1=CC(=O)N(NC(N)=O)C1=O
inactive: dose: 6.25 mg/kg/injection, schedule: Q01DX009 (ip), vehicle: saline 102 % of control and 110 % of control | dose: 12.5 mg/kg/injection, schedule: Q01DX009 (ip), vehicle: saline 105 % of control and 108 % of control | dose: 25.0 mg/kg/injection, schedule: Q01DX009 (ip), vehicle: saline 110 % of control and 123 % of control | dose: 50.0 mg/kg/injection, schedule: Q01DX009 (ip), vehicle: saline 109 % of control and 122 % of control

Cc1ccc(OP(=O)(Oc2ccc(C)cc2)Oc2ccc(C)cc2)cc1.Cc1ccc(OP(=O)(Oc2ccc(C)cc2)Oc2ccc(C)cc2)cc1.[Cl][Mn][Cl]
inactive: dose: 100.0 mg/kg/injection, schedule: Q04DX003 (ip), vehicle: Klucel (hydroxypropylcellulose) (HPC) 110 % of control | dose: 200.0 mg/kg/injection, schedule: Q04DX003 (ip), vehicle: Klucel (hydroxypropylcellulose) (HPC) 115 % of control | dose: 400.0 mg/kg/injection, schedule: Q04DX003 (ip), vehicle: Klucel (hydroxypropylcellulose) (HPC) 114 % of control

O=C(OCC(Cl)(Cl)Cl)N1C2C3OC3C(C3OC32)N1C(=O)OCC(Cl)(Cl)Cl (centres undefined)
inactive: dose: 50.0 mg/kg/injection, schedule: Q01DX009 (ip), vehicle: suspension in saline 99 % of control | dose: 100.0 mg/kg/injection, schedule: Q01DX009 (ip), vehicle: suspension in saline 92 % of control | dose: 200.0 mg/kg/injection, schedule: Q01DX009 (ip), vehicle: suspension in saline 94 % of control

C/C(=C\C(=O)O)CC(=O)O
inactive: [2] 92 % of control | [3] 97 % of control | dose: 400.0 mg/kg/injection, schedule: Q04DX003 (ip), vehicle: saline with Tween-80 88 % of control

CCOC(=O)C(NC(=O)c1ccccc1)C(C)(C)SCc1ccccc1 (centres undefined)
inactive: dose: 50.0 mg/kg/injection, schedule: Q01DX005 (ip), vehicle: saline with Tween-80 103 % of control | dose: 100.0 mg/kg/injection, schedule: Q01DX005 (ip), vehicle: saline with Tween-80 101 % of control | dose: 200.0 mg/kg/injection, schedule: Q01DX005 (ip), vehicle: saline with Tween-80 95 % of control
